The source of these data is US12077503B2, “Substituted cyclic amides and their use as herbicides” (FMC CORPORATION, priority 2015, dated 2024).

The structures appear in SMILES notation.

Common to all, as to type: in vivo
The subject of one assay is Kochia (Kochia scoparia). Briefly: Test A postemergence. The following applies: Bassia scoparia, post-emergence, 240 h. An outline of the steps:
(§1)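 Visual injury scores from 0, no effect, to 100, complete control, were assigned versus untreated controls roughly 10 d after treatment in the greenhouse. Test chemicals, formulated with surfactant in a non-phytotoxic solvent, were applied to planted seeds as a preemergence soil spray or postemergence to one- to two-leaf plants 2 to 10 cm tall, in loam–sand soil.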

The test system of assay [1] is ragweed (common ragweed, Ambrosia elatior). Description: Test A postemergence. The following applies: Ambrosia artemisiifolia, post-emergence, 240 h. An outline of the steps:
as §1

Assay [2] has as its system Galium (catchweed bedstraw, Galium aparine). Briefly: Test A postemergence. The note with it: Galium, post-emergence, 240 h. Put shortly: as §1
The subject of assay [3] is wheat (Triticum aestivum). Briefly: Test A postemergence. The note with it: Triticum aestivum, post-emergence, 240 h. An outline of the steps: as §1
Assay [4] concerns blackgrass (Alopecurus myosuroides). Description: Test A postemergence. The note with it: Alopecurus myosuroides, post-emergence, 240 h. An outline of the steps: as §1
Assay [5] deals with pigweed (Amaranthus retroflexus). Description: Test A postemergence. The note with it: Amaranthus retroflexus, post-emergence, 240 h. Put shortly: as §1
Assay [6] relates to ryegrass, Italian (Italian ryegrass, Lolium multiflorum). Description: Test A postemergence. The following applies: Lolium multiflorum, post-emergence, 240 h. An outline of the steps:
as §1

The subject of assay [7] is barnyardgrass (Echinochloa crus-galli). Briefly: Test A postemergence. The note with it: Echinochloa crus-galli, post-emergence, 240 h. An outline of the steps:
as §1

Assay [8] has as its system giant foxtail (Setaria faberii). Description: Test A postemergence. The following applies: Setaria faberi, post-emergence, 240 h. An outline of the steps:
as §1

For another assay, the system named is corn (Zea mays). Briefly: Test A postemergence. The note with it: Zea mays, post-emergence, 240 h. Put shortly: as §1
The subject of assay [9] is ducksalad (Heteranthera limosa). Briefly: Test B flooded paddy test. The following applies: Heteranthera limosa, Flood, 250 g ai/ha; scale of 0 to 100 where 0 is no effect and 100 is complete control; read-out: Ducksalad plant response rating. An outline of the steps: (§2)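 Response scored visually against untreated controls, 0 = no effect and 100 = complete control, 13–15 d after treatment in the greenhouse. Compounds added to paddy water held 3 cm above soil surface. Treatment given at 2-leaf stage.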

The next assay deals with rice (Oryra sativa). Description: Test B flooded paddy test. The following applies: Oryza sativa, Flood, 250 g ai/ha; scale of 0 to 100 where 0 is no effect and 100 is complete control; read-out: Rice plant response rating. Put shortly: as §2
For assay [10], the system named is sedge, umbrella (small-flower umbrella sedge, Cyperus difformis). Briefly: Test B flooded paddy test. The note with it: Cyperus difformis, Flood, 250 g ai/ha; scale of 0 to 100 where 0 is no effect and 100 is complete control; read-out: Sedge, Umbrella plant response rating. Put shortly:
as §2

For assay [11], the system named is barnyardgrass (Echinochloa crus-galli). Description: Test B flooded paddy test. The note with it: Echinochloa crus-galli, Flood, 250 g ai/ha; scale of 0 to 100 where 0 is no effect and 100 is complete control; read-out: Barnyardgrass plant response rating. Put shortly:
as §2

For `CN1CC[C@H](c2ccc3c(c2)OC(F)(F)O3)[C@@H](C(=O)Nc2ccc(F)c(F)c2F)C1=O` [Compound 813], the pest or weed control at 125 g/ha in the assay on Kochia (Kochia scoparia) (125 g ai/ha, postemergence, visual injury rating after approximately 10 d, read-out: Kochia plant response rating (0 to 100 scale, 0 no effect, 100 complete control)) came out at 0%; in assay [1] (125 g ai/ha, postemergence, visual injury rating after approximately 10 d, read-out: Ragweed plant response rating (0 to 100 scale, 0 no effect, 100 complete control)) it was 0%; in assay [2] (125 g ai/ha, postemergence, visual injury rating after approximately 10 d, read-out: Galium plant response rating (0 to 100 scale, 0 no effect, 100 complete control)), 30%; in assay [4] (125 g ai/ha, postemergence, visual injury rating after approximately 10 d, read-out: Blackgrass plant response rating (0 to 100 scale, 0 no effect, 100 complete control)) it was 80%; in assay [5] (125 g ai/ha, postemergence, visual injury rating after approximately 10 d, read-out: Pigweed plant response rating (0 to 100 scale, 0 no effect, 100 complete control)), 0%; in [6] (125 g ai/ha, postemergence, visual injury rating after approximately 10 d, read-out: Ryegrass, Italian plant response rating (0 to 100 scale, 0 no effect, 100 complete control)) it was 20%. Moreover, the pest or weed control at 125 g/ha came to 80% in assay [7] (125 g ai/ha, postemergence, visual injury rating after approximately 10 d, read-out: Barnyardgrass plant response rating (0 to 100 scale, 0 no effect, 100 complete control)) and 80% in assay [8] (125 g ai/ha, postemergence, visual injury rating after approximately 10 d, read-out: Foxtail, Giant plant response rating (0 to 100 scale, 0 no effect, 100 complete control)). Also, the pest or weed control at 31 g/ha with Kochia (Kochia scoparia) (Postemergence, 31 g ai/ha, visual injury after approx. 10 d, 0 to 100 scale, 0 no effect, 100 complete control, read-out: Plant response rating, Kochia) worked out at 0%; in assay [1] (Postemergence, 31 g ai/ha, visual injury after approx. 10 d, 0 to 100 scale, 0 no effect, 100 complete control, read-out: Plant response rating, Ragweed) it was 0%; in [2] (Postemergence, 31 g ai/ha, visual injury after approx. 10 d, 0 to 100 scale, 0 no effect, 100 complete control, read-out: Plant response rating, Galium), 20%; in [4] (Postemergence, 31 g ai/ha, visual injury after approx. 10 d, 0 to 100 scale, 0 no effect, 100 complete control, read-out: Plant response rating, Blackgrass), 30%; in assay [5] (Postemergence, 31 g ai/ha, visual injury after approx. 10 d, 0 to 100 scale, 0 no effect, 100 complete control, read-out: Plant response rating, Pigweed), 0%; in [6] (Postemergence, 31 g ai/ha, visual injury after approx. 10 d, 0 to 100 scale, 0 no effect, 100 complete control, read-out: Plant response rating, Ryegrass, Italian) it was 0%. Besides, the pest or weed control at 31 g/ha in assay [7] (Postemergence, 31 g ai/ha, visual injury after approx. 10 d, 0 to 100 scale, 0 no effect, 100 complete control, read-out: Plant response rating, Barnyardgrass) is 40%; in assay [8] (Postemergence, 31 g ai/ha, visual injury after approx. 10 d, 0 to 100 scale, 0 no effect, 100 complete control, read-out: Plant response rating, Foxtail, Giant), 70%. Also, the plant injury at 125 g/ha in [3] (125 g ai/ha, postemergence, visual injury rating after approximately 10 d, read-out: Wheat plant response rating (0 to 100 scale, 0 no effect, 100 complete control)) turned out to be 30%; in the assay with corn (Zea mays) (125 g ai/ha, postemergence, visual injury rating after approximately 10 d, read-out: Corn plant response rating (0 to 100 scale, 0 no effect, 100 complete control)), 40%. Also, the plant injury at 31 g/ha in assay [3] (Postemergence, 31 g ai/ha, visual injury after approx. 10 d, 0 to 100 scale, 0 no effect, 100 complete control, read-out: Plant response rating, Wheat) is 0%. In the assay with corn (Zea mays) (Postemergence, 31 g ai/ha, visual injury after approx. 10 d, 0 to 100 scale, 0 no effect, 100 complete control), this compound yielded a Corn plant response rating (crop injury, 0 = no effect, 100 = complete kill) at 31 g/ha of 30%. The pest or weed control at 250 g/ha in [9] worked out at 100%; with rice (Oryra sativa), 20%; in assay [10], 0%; in assay [11], 70%.
